Experimental data reported in publication PMC4460250, “Systems Pharmacology Dissecting Holistic Medicine for Treatment of Complex Diseases: An Example Using Cardiocerebrovascular Diseases Treated by TCM” (Evidence-based Complementary and Alternative Medicine : eCAM, 2015).

Columns and labels:
[1] = in vivo
[2] = in vivo; cited from earlier work

SMILES	Class(High: HIA value ≥0.7; Low: HIA value < 0.7) [1]	HIA(Human Intestinal Absorption) [2]
COc1ccc(CCN(C)CCC[C@](C#N)(c2cc(OC)c(OC)c(OC)c2)C(C)C)cc1OC [Gallopamil(R)]	High (key: High: HIA value ≥0.7; Low: HIA value < 0.7)	0.97
O[C@@](CCN1CCCC1)(c1ccccc1)C1CCCCC1 [Procyclidine(R)]	High (key: High: HIA value ≥0.7; Low: HIA value < 0.7)	1
CC(C)(C)NC[C@@H](O)COc1cccc2c1CCC(=O)N2 [Carteolol(R)]	High (key: High: HIA value ≥0.7; Low: HIA value < 0.7)	0.95
COP(=O)(OC)O[C@@H](c1ccc(Cl)cc1)P(=O)(OC)OC [Mifobate(R)]	High (key: High: HIA value ≥0.7; Low: HIA value < 0.7)	0.82
CC(C)C[C@@H](N(C)C)C1(c2ccc(Cl)cc2)CCC1 [Sibutramine(R)]	High (key: High: HIA value ≥0.7; Low: HIA value < 0.7)	0.77
COc1ccc2c3c1O[C@H]1[C@@H](O)C=C[C@H]4[C@@H](C2)N(C)CC[C@@]341 [Codeine]	High (key: High: HIA value ≥0.7; Low: HIA value < 0.7)	0.93
CCN(CCO)CCC[C@@H](C)Nc1ccnc2cc(Cl)ccc12 [Hydroxychloroquine(R)]	High (key: High: HIA value ≥0.7; Low: HIA value < 0.7)	0.9
O=C(c1ccccc1)c1ccc2n1CC[C@@H]2C(=O)O [Ketorolac(S)]	High (key: High: HIA value ≥0.7; Low: HIA value < 0.7)	0.95
C[C@@H](C(=O)O)c1ccc(-c2ccccc2)c(F)c1 [Flurbiprofen(R)]	High (key: High: HIA value ≥0.7; Low: HIA value < 0.7)	0.95
NS(=O)(=O)c1cc2c(cc1Cl)N[C@H](CC1CCCC1)NS2(=O)=O [Cyclopenthiazide(S)]	High (key: High: HIA value ≥0.7; Low: HIA value < 0.7)	1
COC(=O)C(c1ccccc1)C1CCCCN1 (centres unmarked) [Methylphenidate]	High (key: High: HIA value ≥0.7; Low: HIA value < 0.7)	0.8
CN(C)C(=O)O[C@H]1N=C(c2ccccc2)c2cc(Cl)ccc2N(C)C1=O [Camazepam(R)]	High (key: High: HIA value ≥0.7; Low: HIA value < 0.7)	1
CC[C@@H](c1ccccc1)c1c(O)c2ccccc2oc1=O [Phenprocoumon(S)]	High (key: High: HIA value ≥0.7; Low: HIA value < 0.7)	0.95
CC(C)(C)NC[C@H](O)c1ccc(O)c(CO)n1 [Pirbuterol(S)]	Low (key: High: HIA value ≥0.7; Low: HIA value < 0.7)	0.6
COc1ccc(C[C@@H](C)N)cc1 [Methoxyamphetamine(R)]	High (key: High: HIA value ≥0.7; Low: HIA value < 0.7)	0.8
CCOC(=O)C1(c2ccccc2)CCN(C)CC1 [Meperidine]	High (key: High: HIA value ≥0.7; Low: HIA value < 0.7)	1
C[C@H](C(=O)O)c1cccc(Oc2ccccc2)c1 [Fenoprofen(S)]	High (key: High: HIA value ≥0.7; Low: HIA value < 0.7)	0.85
CN1C(=O)NC(=O)C(C)(C2=CCCCC2)C1=O (centres unmarked) [Hexobarbital]	High (key: High: HIA value ≥0.7; Low: HIA value < 0.7)	0.95
COc1cccc(C2(O)CCCCC2CN(C)C)c1 (centres unmarked) [Tramadol]	High (key: High: HIA value ≥0.7; Low: HIA value < 0.7)	0.9
O=C1Nc2ccc(Cl)cc2C(c2ccccc2Cl)=N[C@@H]1O [Lorazepam(R)]	High (key: High: HIA value ≥0.7; Low: HIA value < 0.7)	0.95
CO[C@@]1(NC(=O)C(C(=O)O)c2ccc(O)cc2)C(=O)N2C(C(=O)O)=C(CSc3nnnn3C)CO[C@@H]21 (stereo partly drawn) [Moxalactam(R)]	Low (key: High: HIA value ≥0.7; Low: HIA value < 0.7)	0.01
CC(=O)Nc1ccc(OC[C@H](O)CNC(C)C)cc1 [Practolol(R)]	High (key: High: HIA value ≥0.7; Low: HIA value < 0.7)	0.95

SMILES	Class(High: HIA value ≥0.7; Low: HIA value < 0.7) [1]	HIA(Human Intestinal Absorption) [2]
COc1cc2nc(N3CCN(C(=O)[C@@H]4COc5ccccc5O4)CC3)nc(N)c2cc1OC [Doxazosin(S)]	High (key: High: HIA value ≥0.7; Low: HIA value < 0.7)	1
Cc1ncc2n1-c1ccc(Cl)cc1C(c1ccccc1F)=NC2 [Midazolam]	High (key: High: HIA value ≥0.7; Low: HIA value < 0.7)	1
CCCNC1CCc2nc(N)sc2C1 (stereo in doubt) [Pramipexole(R)]	High (key: High: HIA value ≥0.7; Low: HIA value < 0.7)	0.8
CCC[C@H](C)C1(CC)C(=O)NC(=O)NC1=O [Pentobarbital(S)]	High (key: High: HIA value ≥0.7; Low: HIA value < 0.7)	1
C=CCc1ccccc1OC[C@@H](O)CNC(C)C [Alprenolol(S)]	High (key: High: HIA value ≥0.7; Low: HIA value < 0.7)	0.93
CCN(CC)[C@H](C)C(=O)c1ccccc1 [Diethylpropion(R)]	High (key: High: HIA value ≥0.7; Low: HIA value < 0.7)	0.95
NC(=O)C[S+]([O-])C(c1ccccc1)c1ccccc1 (centres unmarked) [Modafinil]	High (key: High: HIA value ≥0.7; Low: HIA value < 0.7)	0.8
COC(=O)C1=C(C#N)NC(C)=C(C(=O)OC(C)C)[C@@H]1c1cccc([N+](=O)[O-])c1 [Nilvadipine(S)]	High (key: High: HIA value ≥0.7; Low: HIA value < 0.7)	1
CN1C(=O)C[C@](C)(c2ccccc2)C1=O [Methsuximide(R)]	High (key: High: HIA value ≥0.7; Low: HIA value < 0.7)	1
CCCC(CCC)CCC[C@@H]1COCCN1CCO [Delmopinol(R)]	High (key: High: HIA value ≥0.7; Low: HIA value < 0.7)	0.95
CCN(CC)CC[C@]1(c2ccccc2)CCC(=O)NC1=O [Phenglutarimide(S)]	High (key: High: HIA value ≥0.7; Low: HIA value < 0.7)	1
COc1ccccc1OC[C@H](O)COC(N)=O [Methocarbamol(S)]	High (key: High: HIA value ≥0.7; Low: HIA value < 0.7)	1
CN(C)C(=O)Oc1cccc([N+](C)(C)C)c1 [Neostigmine]	Low (key: High: HIA value ≥0.7; Low: HIA value < 0.7)	0.02
CC(C)NC[C@H](O)COc1cccc2[nH]ccc12 [Pindolol(S)]	High (key: High: HIA value ≥0.7; Low: HIA value < 0.7)	0.9
CN1C(=O)[C@H](O)N=C(c2ccccc2Cl)c2cc(Cl)ccc21 [Lormetazepam(S)]	High (key: High: HIA value ≥0.7; Low: HIA value < 0.7)	1
COc1ccc(CCN(C)CCC[C@@](C#N)(c2cc(OC)c(OC)c(OC)c2)C(C)C)cc1OC [Gallopamil(S)]	High (key: High: HIA value ≥0.7; Low: HIA value < 0.7)	0.97
C[C@@H](c1cc2ccccc2s1)N(O)C(N)=O [Zileuton(S)]	High (key: High: HIA value ≥0.7; Low: HIA value < 0.7)	1
CC1=CC(=O)N2CC(=O)N(C)c3ccc(Cl)cc3C2(c2ccccc2)O1 (centres unmarked) [Ketazolam]	High (key: High: HIA value ≥0.7; Low: HIA value < 0.7)	1
Clc1ccc(CO[C@@H](Cn2ccnc2)c2ccc(Cl)cc2Cl)c(Cl)c1 [Miconazole(R)]	High (key: High: HIA value ≥0.7; Low: HIA value < 0.7)	0.99
CC(C)C[C@H](N(C)C)C1(c2ccc(Cl)cc2)CCC1 [Sibutramine(S)]	High (key: High: HIA value ≥0.7; Low: HIA value < 0.7)	0.77
CCn1cc(C(=O)O)c(=O)c2cc(F)c(N3CCN[C@H](C)C3)c(F)c21 [Lomefloxacin(R)]	High (key: High: HIA value ≥0.7; Low: HIA value < 0.7)	0.99
